Measurements taken from patent US20240391862A1, “(1,4,5-TRISUBSTITUTED-1H-PYRAZOL-3-YL)OXY-2-ALKOXY ALKYL ACIDS AND THEIR DERIVATIVES, THEIR SALTS AND THEIR USE AS HERBICIDAL AGENTS” (Bayer AKtiengesellschaft, priority 2021, published 2024).

How the values were obtained:
ZEAMX = test: Post-emergence herbicidal effect and crop plant compatibility, greenhouse pot test; assay type: in vivo, Zea mays; details: Zea mays, 504 h, one-leaf stage, rated visually after about 3 weeks vs untreated controls
In short: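 Greenhouse pot test: weeds and crops sown in sandy loam, sprayed post-emergence at one-leaf stage (2–3 weeks after sowing) with WP or EC formulations plus 0.5% additive at 600 l/ha water, rates 20–320 g/ha. Visual rating about 3 weeks later versus untreated controls (100% = dead, 0% = as control).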

TRZAS = test: as above; assay type: in vivo, Triticum aestivum; details: for Post-emergence effect against TRZAS: visual rating about 3 weeks after treatment, crop plant
Excerpt: • ALOMY: Alopecurus myosuroides SETVI: Setaria viridis • AVEFA: Avena fatua POLCO: Fallopia convolvulus • AMARE: Amaranthus retroflexus ECHCG: Echinochloa crus-galli • LOLRJ: Lolium rigidum STEME: Stellaria media • VERPE: Veronica persica MATIN: Tripleurospermum inodorum • DIGSA: Digitaria sanguinalis ABUTH: Abutylon threophrasti • TRZAS: Triticum aestivum VIOTR: Viola tricolor • BRSNW: Brassica napus ZEAMX: Zea mays • PHBPU: Ipomoea purpurea GLXMA: Glycine max • ORYSA: Oryza sativa HORMU: Hordeum murinum
Seeds of monocotyledonous and dicotyledonous weeds and crop plants are placed in sandy loam in plastic or organic planting pots, covered with soil and cultivated in a greenhouse under controlled growth conditions. 2 to 3 weeks after sowing, the trial plants are treated at the one-leaf stage. The compounds of the invention, formulated in the form of wettable powders (WP) or as emulsion concentrates (EC), are then sprayed onto the green parts of the plants as aqueous suspension or emulsion with addition of 0.5% additive at a water application rate of 600 l/ha (converted). After the test plants have been kept in the greenhouse under optimum growth conditions for about 3 weeks, the activity of the preparations is rated visually in comparison to untreated controls. For example, 100% activity=the plants have died, 0% activity=like control plants.
Tables 20a to 38c below show the effects/crop compatibilities of selected compounds of the general formula (I) on various harmful plants at an application rate corresponding to 20 to 320 g/ha, which were obtained by the trial procedure specified above.

ABUTH = test: Post-emergence herbicidal effect, greenhouse pot test; assay type: in vivo, Abutilon theophrasti; details: visual rating about 3 weeks after treatment
In short: (§1)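 Sandy loam pots, greenhouse. One-leaf stage (2–3 wk after sowing) foliar spray; WP/EC in water + 0.5% additive, 600 l/ha; 20–320 g/ha. Visual score ~3 wk, 0–100% vs untreated.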

AMARE = test: as above; assay type: in vivo, Amaranthus retroflexus; details: visual rating about 3 weeks after treatment
In short: as §1

AVEFA = test: as above; assay type: in vivo, Avena fatua; details: 320 g/ha, visual rating about 3 weeks after treatment
In short: as §1

DIGSA = test: as above; assay type: in vivo, Digitaria sanguinalis; details: 320 g/ha, visual rating about 3 weeks after treatment
In short: as §1

ECHCG = test: as above; assay type: in vivo, Echinochloa crus-galli; details: for Post-emergence effect against ECHCG: 20 g/ha, visual rating about 3 weeks after treatment
In short: as §1

MATIN = test: as above; assay type: in vivo, Tripleurospermum inodorum
In short: as §1

PHBPU = test: as above; assay type: in vivo, Ipomoea purpurea
In short: as §1

SETVI = test: as above; assay type: in vivo, Setaria viridis; details: 320 g/ha
In short: as §1

VERPE = test: as above; assay type: in vivo, Veronica persica
In short: as §1

VIOTR = test: as above; assay type: in vivo, Viola tricolor
In short: as §1

[1] = 20 g/ha, one-leaf stage, rated visually after about 3 weeks vs untreated controls

CCOC(Oc1nn(-c2ccccc2F)c(-c2ccc(F)nc2)c1Cl)C(=O)O (stereo not drawn) [Example I-52]
0%: plant injury at 20 g/ha (ZEAMX; 20 g/ha, read-out: Post-emergence effect at 20 g/ha against ZEAMX in %) | plant injury at 80 g/ha (ZEAMX; 80 g/ha, read-out: Post-emergence effect at 80 g/ha against ZEAMX in %) | plant injury at 320 g/ha (ZEAMX; 320 g/ha, read-out: Post-emergence effect at 320 g/ha against ZEAMX in %) | percent crop injury (phytotoxicity) to wheat, post-emergence at 20 g/ha (TRZAS; Triticum aestivum, 504 h, 20 g/ha, one-leaf stage, rated visually after about 3 weeks vs untreated controls, read-out: Post-emergence effect at 20 g/ha against TRZAS in %)

CCOC(=O)C(OC)Oc1nn(-c2cccc(C)c2F)c(-c2ccc(F)nc2)c1Br (stereo not drawn) [Example I-94]
20%: Post-emergence effect against TRZAS (TRZAS; 320 g/ha)
100%: Post-emergence effect against ECHCG in % (ECHCG; 80 g/ha) | Post-emergence effect against ECHCG in % (ECHCG; 320 g/ha)
80%: Post-emergence effect against ABUTH (ABUTH; 80 g/ha) | Post-emergence effect against AMARE (AMARE; 80 g/ha) | Post-emergence effect against AVEFA (AVEFA) | Post-emergence effect against DIGSA (DIGSA) | Post-emergence effect against ECHCG (ECHCG) | Post-emergence effect against MATIN in % (MATIN; 80 g/ha) | Post-emergence effect against PHBPU in % (PHBPU; 20 g/ha) | Post-emergence effect against VERPE in % (VERPE; 80 g/ha) | Post-emergence effect against VIOTR in % (VIOTR; 80 g/ha)
10%: Post-emergence effect against TRZAS (TRZAS; 80 g/ha)
90%: Post-emergence effect against ABUTH (ABUTH; 320 g/ha) | Post-emergence effect against AMARE (AMARE; 320 g/ha) | Post-emergence effect against MATIN in % (MATIN; 320 g/ha) | Post-emergence effect against PHBPU in % (PHBPU; 80 g/ha) | Post-emergence effect against PHBPU in % (PHBPU; 320 g/ha) | Post-emergence effect against SETVI in % (SETVI) | Post-emergence effect against VERPE in % (VERPE; 320 g/ha) | Post-emergence effect against VIOTR in % (VIOTR; 320 g/ha)
0%: Post-emergence effect at 20 g/ha against TRZAS in % (TRZAS; [1])

COC(=O)CCOC(=O)C(OC)Oc1nn(-c2cccc(C)c2F)c(-c2ccc(F)nc2)c1Br (stereo not drawn) [Example I-95]
90%: Post-emergence effect against ABUTH (ABUTH; 320 g/ha) | Post-emergence effect against AMARE (AMARE; 320 g/ha) | Post-emergence effect against ECHCG in % (ECHCG; 80 g/ha) | Post-emergence effect against PHBPU in % (PHBPU; 80 g/ha) | Post-emergence effect against PHBPU in % (PHBPU; 320 g/ha) | Post-emergence effect against SETVI in % (SETVI) | Post-emergence effect against VERPE in % (VERPE; 320 g/ha) | Post-emergence effect against VIOTR in % (VIOTR; 320 g/ha)
100%: Post-emergence effect against ECHCG in % (ECHCG; 320 g/ha)
80%: Post-emergence effect against ABUTH (ABUTH; 80 g/ha) | Post-emergence effect against AMARE (AMARE; 80 g/ha) | Post-emergence effect against ECHCG (ECHCG) | Post-emergence effect against MATIN in % (MATIN; 80 g/ha) | Post-emergence effect against MATIN in % (MATIN; 320 g/ha) | Post-emergence effect against VERPE in % (VERPE; 80 g/ha) | Post-emergence effect against VIOTR in % (VIOTR; 80 g/ha)
0%: Post-emergence effect at 20 g/ha against TRZAS in % (TRZAS; [1]) | Post-emergence effect against TRZAS (TRZAS; 80 g/ha) | Post-emergence effect against TRZAS (TRZAS; 320 g/ha)

COC(=O)C(OC)Oc1nn(-c2cccc(C)c2F)c(-c2ccnc(F)c2)c1Br (stereo not drawn) [Example I-115]
10%: Post-emergence effect against TRZAS (TRZAS; 80 g/ha)
80%: Post-emergence effect against ABUTH (ABUTH; 320 g/ha) | Post-emergence effect against AVEFA (AVEFA) | Post-emergence effect against PHBPU in % (PHBPU; 320 g/ha) | Post-emergence effect against VERPE in % (VERPE; 320 g/ha)
20%: Post-emergence effect against TRZAS (TRZAS; 320 g/ha)
90%: Post-emergence effect against ECHCG in % (ECHCG; 320 g/ha) | Post-emergence effect against SETVI in % (SETVI)
0%: Post-emergence effect at 20 g/ha against TRZAS in % (TRZAS; [1])
